Data: patent US12545900B2, “CGAS/DNCV-like nucleotidyltransferases and uses thereof” (Dana-Farber Cancer Institute, Inc., priority 2018, dated 2026)
“Also recorded” adds a separate entry of the source.

Experiments:
Mus musculus STING = biological target: T1, Mus musculus STING (Mus musculus, UniProt Q3TBT3); test: Gel shift assay, radiolabeled nucleotide binding to STING (native PAGE); settings: radiolabeled nucleotide, 0, 4, 20, 100 μM protein
T1 construct: 6xHis-SUMO2 (N, cleaved yes); made in house; host or cells: E. coli BL21 CodonPlus (DE3)-RIL
T1 sequence (Q3TBT3 138-378 limits assumed): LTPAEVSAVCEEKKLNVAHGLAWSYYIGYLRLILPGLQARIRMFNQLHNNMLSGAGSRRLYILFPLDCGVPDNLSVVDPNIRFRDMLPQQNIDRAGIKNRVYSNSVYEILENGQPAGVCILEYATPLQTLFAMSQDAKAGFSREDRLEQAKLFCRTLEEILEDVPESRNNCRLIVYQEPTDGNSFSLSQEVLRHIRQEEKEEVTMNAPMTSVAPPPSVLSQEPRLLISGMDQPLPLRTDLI
Method: (§1) Briefly, recombinant Mus musculus STING or RECON, at 4, 20, or 100 μM was incubated with radiolabeled nucleotide (≤1 μM final concentration) in gel shift buffer for final conditions of 50 mM Tris pH 7.5, 60 mM KCl, 5 mM Mg (OAc) 2, and 1 mM DTT. Experiments were prepared by combining 1 μL of [α-^32P] labeled nucleotide, 2 uL 5x gel shift buffer, 5 μL of nuclease free water, and started by addition of 2 μL of recombinant protein in storage buffer.
(§2) After 30 min of equilibration, bound and free nucleotide were separated by 6% native PAGE in 0.5x TBE buffer. Gels were dried, and exposed to phosphorscreen prior to detection by Typhoon Trio Variable Mode Imager system (GE Healthcare). Gel shifts were quantified with ImageQuant® 5.2 and the % bound nucleotide was calculated as a proportion of total bound and free nucleotide for each lane, after subtraction of background signal. Gel shift data is representative of ≥2 independent experiments.

RECON [1] = biological target: T2, RECON (Mus musculus, UniProt Q8VC28); test: Gel shift assay, radiolabeled nucleotide binding to RECON (native PAGE); settings: radiolabeled nucleotide, 0, 4, 20, 100 μM protein
T2 construct: 6xHis-SUMO2 (N, cleaved yes); made in house; host or cells: E. coli BL21 CodonPlus (DE3)-RIL
T2 sequence (Q8VC28 1-323): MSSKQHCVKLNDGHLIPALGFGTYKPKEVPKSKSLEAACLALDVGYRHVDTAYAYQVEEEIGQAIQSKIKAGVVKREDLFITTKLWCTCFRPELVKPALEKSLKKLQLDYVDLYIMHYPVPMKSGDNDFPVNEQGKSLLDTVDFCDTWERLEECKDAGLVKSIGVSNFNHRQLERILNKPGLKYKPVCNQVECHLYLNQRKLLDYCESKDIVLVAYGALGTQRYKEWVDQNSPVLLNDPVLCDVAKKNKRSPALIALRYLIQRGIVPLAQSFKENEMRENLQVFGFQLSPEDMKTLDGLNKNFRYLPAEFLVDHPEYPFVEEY
Method: as §1, §2

RECON [2] = biological target: T2, RECON; test: RECON enzyme assay (oxidation of NADPH cosubstrate); format: biochemical; settings: nucleotide 50-0.05 μM
Method: Activity assays were performed as previously described (McFarland et al. (2017) Immunity 46:433-445). Briefly, a 2-fold dilution series of nucleotide from 50-0.05 μM was incubated in 1×PBS with 200 μM NADPH (cosubstrate) and 25 μM 9,10-Phenanthrenequinone (substrate). The reactions were started with the addition of RECON to a final concentration of 0.5 μM and absorbance at 340 nm was monitored at 20 s intervals for 20 min. Slope of each reaction in the linear range (20-250 s) was used to calculate activity (Linear regression/straight Line analysis, Prism 7.0c). Values were normalized to reactions with zero nucleotide added, which defined 100% activity.

[3] = system: interferon-β reporter in HEK293T cells expressing Mus musculus STING; test: Cellular assay for interferon-β induction (in-cell STING reporter assay); settings: HEK293T cells transfected with plasmid overexpressing the synthesizing enzyme
CapE = biological target: T3, CapE (Escherichia coli, UniProt Q6XGD4); test: Phospholipase assay (EnzChek Phospholipase A1), CapE; format: biochemical, E. coli; settings: 0.1, 1, and 10-fold molar ratios of nucleotide to phospholipase
T3 construct: made in house; host or cells: E. coli BL21 CodonPlus (DE3)-RIL
T3 sequence (Q6XGD4 whole entry): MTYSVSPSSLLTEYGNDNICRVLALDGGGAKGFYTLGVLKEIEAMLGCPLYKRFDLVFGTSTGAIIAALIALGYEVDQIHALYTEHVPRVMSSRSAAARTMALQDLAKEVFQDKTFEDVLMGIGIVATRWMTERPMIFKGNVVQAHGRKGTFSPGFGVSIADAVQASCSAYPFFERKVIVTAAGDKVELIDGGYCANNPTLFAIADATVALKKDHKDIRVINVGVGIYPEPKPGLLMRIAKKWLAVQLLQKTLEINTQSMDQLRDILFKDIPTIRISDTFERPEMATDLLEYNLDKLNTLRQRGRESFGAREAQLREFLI
Method: Patatin-like lipases were assayed as previously described (Gaspar & Machner (2014) Proc. Natl. Acad. Sci. U.S.A. 111:4560-4565). Briefly, CapV and CapE were produced recombinantly and catalytic activity was measured using the EnzChek® Phospholipase A1 Assay Kit (Invitrogen) according to the manufacturer's instructions. […] Assays were monitored fluorometrically Ex=460 nm/Em=515 nm, for 60 min at ˜90 s intervals at room temperature using a Biotek Synergy plate reader. Slope of each reaction in the linear range was used to calculate activity (Linear regression/straight line analysis, Prism 7.0c). A PLA1 standard curve from 20-0.02 U was used to interpolate phospholipase activity. Emission was monitored at a gain of 100 and/or 50 in order to extend the linear range of the assay.

Row | SMILES | recognition/binding of nucleotide by STING (Mus musculus STING) | recognition/binding of nucleotide by RECON (RECON [1]) | inhibition of RECON enzymatic activity (RECON [2]) | activation of STING-dependent type I interferon (IFN-β reporter) [3] | activation of CapE phospholipase activity (CapE)
1 | Nc1nc2c(ncn2[C@@H]2O[C@@H]3COP(=O)(O)O[C@H]4[C@@H](O)[C@H](n5cnc6c(N)ncnc65)O[C@@H]4COP(=O)(O)O[C@H]4[C@@H](O)[C@H](n5cnc6c(N)ncnc65)O[C@@H]4COP(=O)(O)O[C@H]3[C@H]2O)c(=O)[nH]1 [cAAG, 3′3′3′ tricyclic adenosine monophosphate-adenosine monophosphate-guanosine monophosphate] | escaped STING recognition | detected by RECON | inhibition of RECON enzymatic activity |  | 
2 | Nc1ncnc2c1ncn2C1OC2COP(=O)(O)OC3C(COP(=O)(O)OC2C1O)OC(n1ccc(=O)[nH]c1=O)C3O (stereo not shown) [cUMP-AMP, 3′3′ cyclic uridine monophosphate-adenosine monophosphate] |  | bound to cUMP-AMP; also recorded: detected by RECON | inhibited RECON function, albeit with a reduced potency compared to the previously reported inhibition by c-di-AMP and 3′3′ cGAMP | failed to activate STING-dependent type I interferon in cells | CapE as a direct cUMP-AMP receptor
